Values of other authors as cited in paper PMC3341490 (Nuclear Medicine and Biology, 2012).

Legend:
[1] = copper complex; ref [24]
[2] = system: GRPR-expressing, PC-3 xenografted tumors in SCID mice

O=C(O)CN1CCCN(CC(=O)O)CCN(CC(=O)O)CCCN(CC(=O)O)CC1 [TETA]
stability constant (log K) [1]: 21.7

O=C(O)CN1CCN(CC(=O)O)CCN(CC(=O)O)CC1 [NOTA, 1,4,7-triazacyclononane-1,4,7-triacetic acid]
stability constant (log K) [1]: 21.6

^64Cu-NO2A-Aoc-BN(7-14)
PC-3 tumor uptake ([2]; 1 hour, ref [18]-[19]): 3.59 % ID/g | retention of radioactivity in the tumor, relative to 1 h ([2]; 24 h vs 1 h, ref [19]): 28%

O=C(O)CN1CCN(CC(=O)O)CCN(CC(=O)O)CCN(CC(=O)O)CC1 [DOTA, 1,4,7,10-tetraazacyclododecane-1,4,7,10-tetraacetic acid]
stability constant (log K) [1]: 22.3
